The test addresses T1, Androgen Receptor (Homo sapiens, UniProt P10275).
T1 construct: endogenous in cells; host or cells: VCaP cells
T1 sequence (P10275 1-920): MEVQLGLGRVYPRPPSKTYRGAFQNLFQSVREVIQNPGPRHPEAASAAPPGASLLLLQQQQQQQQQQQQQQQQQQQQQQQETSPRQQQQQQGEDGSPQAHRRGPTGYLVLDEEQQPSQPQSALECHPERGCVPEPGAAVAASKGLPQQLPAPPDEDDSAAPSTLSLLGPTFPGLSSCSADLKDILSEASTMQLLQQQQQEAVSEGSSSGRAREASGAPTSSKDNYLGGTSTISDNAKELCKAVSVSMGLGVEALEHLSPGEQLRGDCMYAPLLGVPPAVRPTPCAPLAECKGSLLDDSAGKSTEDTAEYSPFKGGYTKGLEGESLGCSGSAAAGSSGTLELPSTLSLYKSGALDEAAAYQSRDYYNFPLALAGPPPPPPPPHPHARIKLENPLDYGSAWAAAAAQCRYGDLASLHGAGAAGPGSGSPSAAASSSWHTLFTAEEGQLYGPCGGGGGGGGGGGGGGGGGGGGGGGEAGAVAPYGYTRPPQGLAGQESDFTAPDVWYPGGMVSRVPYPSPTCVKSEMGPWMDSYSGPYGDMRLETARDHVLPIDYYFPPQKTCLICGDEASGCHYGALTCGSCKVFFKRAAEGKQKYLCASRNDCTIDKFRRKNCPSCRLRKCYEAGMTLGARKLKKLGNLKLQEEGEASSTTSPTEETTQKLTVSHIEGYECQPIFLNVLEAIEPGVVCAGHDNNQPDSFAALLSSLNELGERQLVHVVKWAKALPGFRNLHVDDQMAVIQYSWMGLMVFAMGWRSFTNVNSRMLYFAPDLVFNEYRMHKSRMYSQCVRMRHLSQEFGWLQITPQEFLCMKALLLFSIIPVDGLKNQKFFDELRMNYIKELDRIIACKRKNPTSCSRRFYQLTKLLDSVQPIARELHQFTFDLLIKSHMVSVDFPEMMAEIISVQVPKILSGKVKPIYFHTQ
Put plainly: Androgen Receptor ELISA assay (PathScan AR ELISA) in VCaP cells: AR degradation, Dmax and DC50. The class given is cell-based. As to conditions: VCaP cells, Table 36; for DC50: read-out: VCaP DC50; for Dmax: VCaP, read-out: VCaP Dmax (%). The method, boiled down: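 VCaP cells in phenol red-free RPMI with 5% charcoal-stripped FBS were grown at least 3 days, then given compound as 7 half-log doses in 0.1% DMSO with 0.1 nM R1881 for 24 h. Lysates went into a sandwich AR ELISA with TMB read at 450 nm.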

One may read the DC50 as the concentration at which degradation of the target reaches its halfway point. Usually Dmax stands for the largest share of the target that was removed. With `Cc1ncsc1-c1ccc([C@H](C)NC(=O)C2C[C@@H](O)CN2C(=O)C(NC(=O)CN2CCN(CCN3CCN(c4ccc(C(=O)N[C@H]5C(C)(C)[C@H](Oc6ccc(C#N)c(Cl)c6)C5(C)C)cn4)CC3)CC2)C(C)(C)C)cc1` (stereo partly drawn) [Example 789, N-((1r,3r)-3-(3-chloro-4-cyanophenoxy)-2,2,4,4-tetramethylcyclobutyl)-6-(4-(2-(4-(2-(((S)-1-((2S,4R)-4-hydroxy-2-(((S)-1-(4-(4-methylthiazol-5-yl)phenyl)ethyl)carbamoyl)pyrrolidin-1-yl)-3,3-dimethyl-1-oxobutan-2-yl)amino)-2-oxoethyl)piperazin-1-yl)ethyl)piperazin-1-yl)nicotinamide], the DC50 is under 50 nM and the Dmax is over 71%.
As for `Cc1ncsc1-c1ccc([C@H](C)NC(=O)[C@@H]2C[C@@H](O)CN2C(=O)[C@@H](NC(=O)COCCN2CCN(Cc3cc(C(=O)N[C@@H](C)Cn4ccc(-c5ccc(C#N)c(Cl)c5)n4)n[nH]3)CC2)C(C)(C)C)cc1` [Example 790, N-((S)-1-(3-(3-chloro-4-cyanophenyl)-1H-pyrazol-1-yl)propan-2-yl)-5-((4-(2-(2-(((S)-1-((2S,4R)-4-hydroxy-2-(((S)-1-(4-(4-methylthiazol-5-yl)phenyl)ethyl)carbamoyl)pyrrolidin-1-yl)-3,3-dimethyl-1-oxobutan-2-yl)amino)-2-oxoethoxy)ethyl)piperazin-1-yl)methyl)-1H-pyrazole-3-carboxamide], the DC50 is over 501 nM and the Dmax lay in the range of 26 to 50%.
For `Cc1ncsc1-c1ccc([C@H](C)NC(=O)[C@@H]2C[C@@H](O)CN2C(=O)C(NC(=O)CO[C@H]2CCCC[C@@H]2N2CCN(CCOc3ccc(C(=O)N[C@H]4C(C)(C)[C@H](Oc5ccc(C#N)c(Cl)c5)C4(C)C)cc3)CC2)C(C)(C)C)cc1` (stereo partly drawn) [Example 791, (2S,4R)-1-((S)-2-(2-(((1S,2S)-2-(4-(2-(4-(((1r,3r)-3-(3-chloro-4-cyanophenoxy)-2,2,4,4-tetramethylcyclobutyl)carbamoyl)phenoxy)ethyl)piperazin-1-yl)cyclohexyl)oxy)acetamido)-3,3-dimethylbutanoyl)-4-hydroxy-N-((S)-1-(4-(4-methylthiazol-5-yl)phenyl)ethyl)pyrrolidine-2-carboxamide], the DC50 is over 501 nM and the Dmax was under 25%.
For `Cc1ncsc1-c1ccc([C@H](C)NC(=O)[C@@H]2C[C@@H](O)CN2C(=O)C(NC(=O)CO[C@@H]2CCCC[C@H]2N2CCN(CCOc3ccc(C(=O)N[C@H]4C(C)(C)[C@H](Oc5ccc(C#N)c(Cl)c5)C4(C)C)cc3)CC2)C(C)(C)C)cc1` (stereo partly drawn) [Example 792, (2S,4R)-1-((S)-2-(2-(((1R,2R)-2-(4-(2-(4-(((1r,3r)-3-(3-chloro-4-cyanophenoxy)-2,2,4,4-tetramethylcyclobutyl)carbamoyl)phenoxy)ethyl)piperazin-1-yl)cyclohexyl)oxy)acetamido)-3,3-dimethylbutanoyl)-4-hydroxy-N-((S)-1-(4-(4-methylthiazol-5-yl)phenyl)ethyl)pyrrolidine-2-carboxamide], in that order: over 501 nM and 26 to 50%.
For the molecule `COc1cc(-c2scnc2C)ccc1CNC(=O)C1C[C@@H](O)CN1C(=O)[C@@H](NC(=O)COCCN1CCN(c2ccc(C(=O)N[C@H]3C(C)(C)[C@H](Oc4ccc(C#N)c(Cl)c4)C3(C)C)cn2)CC1)C(C)(C)C` (stereo partly drawn) [Example 793, N-((1r,3r)-3-(3-chloro-4-cyanophenoxy)-2,2,4,4-tetramethylcyclobutyl)-6-(4-(2-(2-(((S)-1-((2S,4R)-4-hydroxy-2-((2-methoxy-4-(4-methylthiazol-5-yl)benzyl)carbamoyl)pyrrolidin-1-yl)-3,3-dimethyl-1-oxobutan-2-yl)amino)-2-oxoethoxy)ethyl)piperazin-1-yl)nicotinamide], the DC50 was under 50 nM and the greatest degradation seen (Dmax) is over 71%.
For `Cc1ncsc1-c1ccc([C@H](C)NC(=O)[C@@H]2C[C@@H](O)CN2C(=O)[C@@H](NC(=O)CN2CC(N3CCN(c4ccc(C(=O)N[C@H]5C(C)(C)[C@H](Oc6ccc(C#N)c(Cl)c6)C5(C)C)cn4)CC3)C2)C(C)(C)C)cc1` [Example 794, N-((1r,3r)-3-(3-chloro-4-cyanophenoxy)-2,2,4,4-tetramethylcyclobutyl)-6-(4-(1-(2-(((S)-1-((2S,4R)-4-hydroxy-2-(((S)-1-(4-(4-methylthiazol-5-yl)phenyl)ethyl)carbamoyl)pyrrolidin-1-yl)-3,3-dimethyl-1-oxobutan-2-yl)amino)-2-oxoethyl)azetidin-3-yl)piperazin-1-yl)nicotinamide], in that order: under 50 nM and 51 to 70%.
For `Cc1ncsc1-c1ccc([C@H](C)NC(=O)[C@@H]2C[C@@H](O)CN2C(=O)[C@@H](NC(=O)CN2CCN(C3CN(c4ccc(C(=O)N[C@H]5C(C)(C)[C@H](Oc6ccc(C#N)c(Cl)c6)C5(C)C)cn4)C3)CC2)C(C)(C)C)cc1` [Example 795, N-((1r,3r)-3-(3-chloro-4-cyanophenoxy)-2,2,4,4-tetramethylcyclobutyl)-6-(3-(4-(2-(((S)-1-((2S,4R)-4-hydroxy-2-(((S)-1-(4-(4-methylthiazol-5-yl)phenyl)ethyl)carbamoyl)pyrrolidin-1-yl)-3,3-dimethyl-1-oxobutan-2-yl)amino)-2-oxoethyl)piperazin-1-yl)azetidin-1-yl)nicotinamide], in that order: under 50 nM and over 71%.
For `Cc1ncsc1-c1ccc([C@H](C)NC(=O)[C@@H]2C[C@@H](O)CN2C(=O)[C@H](c2cc(N3CCN(CCCc4ccc(C(=O)N[C@H]5C(C)(C)[C@H](Oc6ccc(C#N)c(Cl)c6)C5(C)C)cc4)CC3)no2)C(C)C)cc1` [Example 796, (2S,4R)-1-((S)-2-(3-(4-(3-(4-(((1r,3r)-3-(3-chloro-4-cyanophenoxy)-2,2,4,4-tetramethylcyclobutyl)carbamoyl)phenyl)propyl)piperazin-1-yl)isoxazol-5-yl)-3-methylbutanoyl)-4-hydroxy-N-((S)-1-(4-(4-methylthiazol-5-yl)phenyl)ethyl)pyrrolidine-2-carboxamide] the same measures were over 501 nM and 26 to 50%.
`Cc1ncsc1-c1ccc([C@H](C)NC(=O)[C@@H]2C[C@@H](O)CN2C(=O)[C@@H](c2cc(N3CCN(CCCc4ccc(C(=O)N[C@H]5C(C)(C)[C@H](Oc6ccc(C#N)c(Cl)c6)C5(C)C)cc4)CC3)no2)C(C)C)cc1` [Example 797, (2S,4R)-1-((R)-2-(3-(4-(3-(4-(((1r,3r)-3-(3-chloro-4-cyanophenoxy)-2,2,4,4-tetramethylcyclobutyl)carbamoyl)phenyl)propyl)piperazin-1-yl)isoxazol-5-yl)-3-methylbutanoyl)-4-hydroxy-N-((S)-1-(4-(4-methylthiazol-5-yl)phenyl)ethyl)pyrrolidine-2-carboxamide]: the DC50 was under 50 nM and the Dmax was 51 to 70%.
For `Cc1ncsc1-c1ccc([C@H](C)NC(=O)[C@@H]2C[C@@H](O)CN2C(=O)[C@@H](NC(=O)CCCCN2C[C@H]3C[C@@H]2CN3c2ccc(C(=O)N[C@H]3C[C@H](Oc4ccc(C#N)c(Cl)c4)C3)cn2)C(C)(C)C)cc1` [Example 798, N-((1r,3R)-3-(3-chloro-4-cyanophenoxy)cyclobutyl)-6-((1R,4R)-5-(5-(((S)-1-((2S,4R)-4-hydroxy-2-(((S)-1-(4-(4-methylthiazol-5-yl)phenyl)ethyl)carbamoyl)pyrrolidin-1-yl)-3,3-dimethyl-1-oxobutan-2-yl)amino)-5-oxopentyl)-2,5-diazabicyclo[2.2.1]heptan-2-yl)nicotinamide], in that order: over 501 nM and under 25%.
For `Cc1ncsc1-c1ccc([C@H](C)NC(=O)C2C[C@@H](O)CN2C(=O)C(NC(=O)CCC(F)(F)CN2CCN(c3ccc(C(=O)N[C@H]4C(C)(C)[C@H](Oc5ccc(C#N)c(Cl)c5)C4(C)C)cn3)CC2)C(C)(C)C)cc1` (stereo partly drawn) [Example 799, N-((1r,3r)-3-(3-chloro-4-cyanophenoxy)-2,2,4,4-tetramethylcyclobutyl)-6-(4-(2,2-difluoro-5-(((S)-1-((2S,4R)-4-hydroxy-2-(((S)-1-(4-(4-methylthiazol-5-yl)phenyl)ethyl)carbamoyl)pyrrolidin-1-yl)-3,3-dimethyl-1-oxobutan-2-yl)amino)-5-oxopentyl)piperazin-1-yl)nicotinamide] the same measures were under 50 nM and 51 to 70%.

The values are drawn from patent US11427548B2 (Arvinas Operations, Inc., priority 2015, dated 2022).
